# Test results: US20230014352A1, “INHALED STATINS AS BRONCHODILATORS TO IMPROVE LUNG FUNCTION IN RESPIRATORY DISEASES” (priority 2019, published 2023)
# Entries after “also recorded” stand apart in the source; their conditions may differ.
# Assays:
# ASM cells = assay: RealTime-Glo Annexin V Apoptosis and Necrosis assay; type: cell-based, human
# Description: Lack of apoptosis: Some studies have shown that statins at high enough doses can reduce the viability of vascular smooth muscle cells, epithelial cells, and endothelial cells (S. Ghavami et al., Biochim Biophys Acta (2014) 1843(7):1259-71; T. P. Miettinen et al., Cell Rep (2015) 13(11):2610-20).
# RealTime-Glo™ Annexin V Apoptosis and Necrosis assay was performed by growing ASM cells on 96-well white cell culture plate according to the manufacturer's instructions (Promega Inc). […] In this real-time annexin V binding assay, the luminescence signal was detected for apoptosis and necrosis was detected with a fluorescence signal by using a SpectraMax® plate reader. […] (20 μg/mL) was used as a positive control (FIG. 2).
# eotaxin-3 [1] = assay: IL13/TNFα-induced eotaxin-3 peptide secretion by ASM cells; type: cell-based, human; settings: 2 mM pitavastatin, 72 hrs; cytokines 18 hrs at 10 ng/mL; 10% FBS; FIG. 14A
# Description: (§1) Non-asthmatic primary human ASM cells were grown to confluence and were either untreated or pre-treated with 2 mM pitavastatin and GGPP (10 mM) for a total of 72 hours. Total cytokine stimulation was for 18 hours at 10 ng/mL. […] All experiments were conducted under serum-containing media conditions (10% FBS).
# primary ASM cells = assay: Potentiation of isoproterenol relaxation of histamine-induced ASM contraction; type: cell-based, human; settings: FIG. 17A
# Description: Primary ASM cells from a non-asthmatic donor were serum-deprived for 2 days in a tissue culture flask, and then cultured to confluence for an additional 24 hrs in serum-free medium in 96-well traction force measurement plates (3 kPa stiffness). The pre-treatment contractile force was measured as described above. Cells were then treated with either vehicle (PEG400), control (serum-free medium) or Pitavastatin at concentrations of 10^−5 M, 10^−6 M, 10^−7 M, and 10^−8 M, for 24 hrs, and the baseline contractile force measured. ASM cells were then acutely treated with histamine (10 μM) for 30 minutes, and the histamine-induced contractile force was measured. The cells were then treated with isoproterenol (10^−6, 10^−7, 10^−8, 10^−9, and 10^−11 M) for 30 minutes, and the isoproterenol-relaxed ASM contractile force was measured. The percent “histamine contraction” was calculated as the ratio of isoproterenol-relaxed ASM contractile force to histamine-induced contractile force. […] FIG. 17B details the data boxed in FIG. 17A.
# IL6 = assay: IL17/TNFα-induced IL6 peptide secretion by ASM cells; type: cell-based, human; settings: 2 mM pitavastatin, 72 hrs; cytokines 18 hrs at 10 ng/mL; 10% FBS; FIG. 14B
# Description: as §1
# mouse PCLS = assay: Viability of mouse PCLS (lung tissue toxicity); settings: FIG. 10F
# MLC-2 = MLC-2 (total and phosphorylated) expression, western blot; type: cell-based, human; settings: 1 μM, 24 hours
# Description: (§2) Antibodies for western blot analysis against total and phospho-MLC2 were obtained from Santa Cruz Biotechnology and Cell Signaling Technology, respectively. Antibodies for pROCK1, total ROCK1, and GAPDH were obtained from Abcam. Pitavastatin was obtained from Santa Cruz Biotechnology.
# (§3) Non-asthmatic primary human ASM cells were treated with either vehicle or pitavastatin (1 μM) for 24 hours. Cells were then immuno-stained for F-actin expression. […] Cell lysates were analyzed by western blot for total ROCK-1, total ROCK-2, total MLC-2, and phosphorylated MLC-2. As shown in FIGS. 15C and 15D, pitavastatin reduced the total expression of ROCK-1, ROCK-2, and MLC-2 (total and phosphorylated).
# ROCK-1 = assay: Total ROCK-1 expression, western blot; type: cell-based, human; settings: 1 μM, 24 hrs, FIG. 15C
# Description: as §2, §3
# [2] = test system: precision-cut human lung slices; assay: Histamine-induced bronchoconstriction in precision-cut human lung slices, pitavastatin and isoproterenol; settings: 5 μM, 24 hours
# Description: The experiment was performed under serum-deprived media conditions, n=3-7 airways per group. Changes in lumen narrowing were reported as percentage changes (±SEM) of the pre-treatment state (see FIG. 13). The absolute value of lumen airway area was not statistically different between the pitavastatin and control groups at the pre-treatment state.
# eotaxin-3 [3] = assay: Cytokine mixture (CM)-induced eotaxin-3 expression in ASM cells, dexamethasone with or without pitavastatin; type: cell-based, human; settings: pitavastatin 0.1, 0.5 or 1 μM added to dexamethasone 0.1, 1 or 5 μM, 60 hrs; CM 15 hrs; FIG. 18
# Description: Primary human airway smooth muscle cells were cultured to confluence in serum-containing media (10% FBS), then pre-treated with dexamethasone (“Dex”) at 0.1, 1, or 5 μM, with or without pitavastatin (“Pit”) at 0.1, 0.5, or 1 μM concentrations for 60 hrs. The ASM cells were then exposed to a mixture of cytokines ([…] IL-13, IL-17, and TNFα, “CM”) for 15 hrs, and the expression of eotaxin-3 was measured. “NT” means no treatment.
# [4] = test system: myosin light chain-2 (MLC-2) phosphorylation; assay: Thrombin-induced MLC-2 phosphorylation, western blot; type: cell-based, human; settings: 1 or 10 μM, 24 hrs; thrombin 2 U, 30 min; FIG. 5B
# Description: as §2
# Human ASM cells were treated with pitavastatin (1 or 10 μM) for 24 hours, then treated with thrombin (2 U, 30 min). As depicted in FIG. 5B, pitavastatin (1 or 10 μM) inhibited thrombin-induced MLC2 phosphorylation.
# F-actin = F-actin expression, immunostaining; type: cell-based, human; settings: 24 hrs; for basal F-actin expression: 1 μM, FIG. 15A/15B
# Description: as §3
# Non-asthmatic primary human ASM cells were co-treated with 1 μM pitavastatin (Pit), Pit with 10 μM GGPP, or Pit with 10 μM GGPP plus 100 μM MA for 24 hrs.
# [5] = test system: bronchial airways of human PCLS; assay: Histamine-induced airway constriction in human PCLS; settings: pre-treated 24 hrs, compared to vehicle, FIG. 11C
# Excerpt: A non-transplantable non-asthmatic human donor lung was obtained through the Gift of Hope/Regional Organ Bank of Illinois, and sliced as per published protocols. Briefly, the lung lobe was filled with 1.5% low melting temperature agarose (Type IX; Sigma, St. Louis, Mo.) in Hanks balanced salt solution (pH=7.4; Invitrogen, Carlsbad, Calif.), and sliced using a VT1200S vibrating blade microtome (Leica Microsystems, Bannockburn, Ill.) to create 250 μm thick slices. Slices were cryopreserved till the day of the experiment.
# Slices were treated with pitavastatin (2 μM) for 24 hrs, before challenge with histamine (1 μM). Airway constriction was measured as luminal area changes in response to increasing doses of histamine. In both sets of PCLS samples, airway lumen area was quantified from bright field images using the Fiji image analysis software.
smiles,measurement,setting,value
O=C(O)C[C@H](O)C[C@H](O)/C=C/c1c(C2CC2)nc2ccccc2c1-c1ccc(F)cc1 [pitavastatin],apoptosis and necrosis (cell death),ASM cells,no evidence of apoptosis or cell death
same,cellular toxicity,ASM cells,did not demonstrate any
same,IL13/TNFα-induced eotaxin-3 peptide secretion,eotaxin-3 [1],inhibited
same,effect of isoproterenol on histamine contraction compared to vehicle,"primary ASM cells; 10^−7 M, 10^−6 M and 10^−5 M pitavastatin 24 hrs, 10^−9 M and 10^−8 M isoproterenol",potentiated
same,degree of relaxation compared to vehicle,"primary ASM cells; all concentrations of statin, 10^−11 M isoproterenol",not substantially different from vehicle
same,IL17/TNFα-induced IL6 peptide secretion,IL6,inhibited
same,lung tissue toxicity,mouse PCLS,did not demonstrate any
same,expression of MLC-2 (total and phosphorylated),MLC-2,reduced
same,total (basal) expression of ROCK-1,ROCK-1,reduced
same,interference with the β2-agonist effect of isoproterenol,[2],did not interfere; also recorded: does not interfere
same,histamine (Hist)-induced bronchoconstriction,"[2]; histamine 10 μM 15 min, serum-deprived, FIG. 13",reduced
same,eotaxin-3 expression,eotaxin-3 [3],Significant reductions in eotaxin-3 expression
same,thrombin-induced MLC2 phosphorylation,[4],inhibits; also recorded: reduced MLC-2 phosphorylation
same,reductions of F-actin expression and ASM contraction with GGPP and MA co-treatment,"F-actin; 1 μM Pit with 10 μM GGPP, or with 10 μM GGPP and 100 μM MA, FIG. 15B",abrogated
same,basal F-actin expression,F-actin,significantly reduced
same,basal F-actin expression,F-actin; listed as Pit,reduced F-actin expression; also recorded: significantly reduced
same,1 μM histamine-induced airway constriction (lumen narrowing),[5],significantly inhibited
same,1 μM histamine-induced airway constriction (lumen narrowing),[5]; listed as Pit,significantly reduced
